Patent publication US20250375511A1 (priority 2024, published 2025)

Key:
T24 cells = format: cell-based, human
[1] = Binding of Fe^3+ to BCG: zeta potential (Zeta Sizer Ultra); format: physicochemical; conditions: in water, 0.04 mg/mL BCG, 100 uM Fe(NO3)3, measured immediately
Description: Zeta potential was measured immediately using a Zeta Sizer Ultra (Malvern).

[2] = tested on: CT26.WT (mouse colon adenocarcinoma) tumors; set-up: species or system male BALB/C mice; conditions: in vivo

Molecule | cell kill (T24 cells) [%] | zeta potential [1] | survival [2] | tumor growth [2]
O=[N+]([O-])[O-].O=[N+]([O-])[O-].O=[N+]([O-])[O-].[Fe+3] [Fe^3+, Fe(NO3)3] | 1.4 | not detectable | – | –
Ru(4,4′-dimethyl-2,2′-bipyridine)2(2-(2′,2″:5″,2′″-terthiophene)-imidazo[4,5-f][1,10]phenanthroline) [RUVIDAR] | – | – | significantly increases survival, but the effect size is small | tumor growth suppression
